Assay results: PMC11845477, “Exploring the principles behind antibiotics with limited resistance” (Nature Communications, 2025)
Where a SMILES comes first, the peptide text is derived from it. Bridges are numbered along the chain shown (N, C = ends). [ ]: non-standard residue; d: D form. The star is where a group is joined. X1 = NC[C@@H](CC(=O)*)c1cccc(Cl)c1; Dab = NCC[C@H](N)C(=O)O; Dap = NC[C@H](N)C(=O)O

How the values were obtained:
[1] = test system: E. coli ATCC 25922 (SEN) and E. coli NCTC13846 (MDR); assay: Adaptive laboratory evolution (ALE), relative MIC of evolved lines; format: cell-based, Escherichia coli
How it was run: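 Ten parallel populations per antibiotic–ancestor pair were evolved in MHB at 37 °C, starting near 50% growth-inhibiting drug. Every 72 h they were passaged into 0.5–2.5× increasing concentrations, keeping the highest-drug well with OD600 > 0.2.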

[2] = test system: E. coli BW25113-ΔacrB; assay: AcrAB-TolC efflux deficiency screen, relative MIC; format: cell-based, Escherichia coli; details: ΔacrB vs wild-type
How it was run: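 Broth microdilution in MHB (supplemented MS for SCH79797), ten-step antibiotic dilutions, 5 × 10^5 cells/mL, 18 h at 37 °C with shaking; MIC is lowest concentration giving background-corrected OD600 < 0.05. Relative MIC as log2 ratio: ΔacrB vs wild-type; pUCacrAB vs empty pUC118 (plasmid strains under 100 µg/mL ampicillin). Mean of 3 biological replicates.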

In the case of `CC(C)C[C@@H]1NC(=O)[C@@H](Cc2ccccc2)NC(=O)[C@H](CCN)NC(=O)[C@@H](NC(=O)[C@H](CN)NC(=O)[C@@H](NC(=O)C[C@H](CN)c2cccc(Cl)c2)[C@@H](C)O)CCNC(=O)[C@H]([C@@H](C)O)NC(=O)[C@H](CCN)NC(=O)[C@H](CCN)NC1=O` [SPR206] (X1-T[Dap][Dab][Dab][dF]L[Dab][Dab]T; lactam 3-C (inferred); N-terminus assumed), the “Relative MIC” value ([1]; ALE, E. coli ATCC 25922 (EC-SEN), evolved line 1) is reported as 512, the “Relative MIC” value ([1]; ALE, E. coli ATCC 25922 (EC-SEN), evolved line 2) is reported as 256 and the “Relative MIC” value ([1]; ALE, E. coli ATCC 25922 (EC-SEN), evolved line 3) is reported as 512. For the same compound, the “Relative MIC” value ([1]; ALE, E. coli ATCC 25922 (EC-SEN), evolved line 4) was 256, the “Relative MIC” value ([1]; ALE, E. coli ATCC 25922 (EC-SEN), evolved line 5) was 128 and the “Relative MIC” value ([1]; ALE, E. coli ATCC 25922 (EC-SEN), evolved line 6) was 512. The “Relative MIC” value ([1]; ALE, E. coli ATCC 25922 (EC-SEN), evolved line 7) was 256, the “Relative MIC” value ([1]; ALE, E. coli ATCC 25922 (EC-SEN), evolved line 8) was 128 and the “Relative MIC” value ([1]; ALE, E. coli ATCC 25922 (EC-SEN), evolved line 9) was 256. The “Relative MIC” value ([1]; ALE, E. coli ATCC 25922 (EC-SEN), evolved line 10) was 16, the “Relative MIC” value ([1]; ALE, E. coli NCTC 13846 (EC-MDR), evolved line 1) was 8 and the “Relative MIC” value ([1]; ALE, E. coli NCTC 13846 (EC-MDR), evolved line 2) was 16. The “Relative MIC” value ([1]; ALE, E. coli NCTC 13846 (EC-MDR), evolved line 3) was 16, the “Relative MIC” value ([1]; ALE, E. coli NCTC 13846 (EC-MDR), evolved line 4) was 16 and the “Relative MIC” value ([1]; ALE, E. coli NCTC 13846 (EC-MDR), evolved line 5) was 32. For the same compound, the “Relative MIC” value ([1]; ALE, E. coli NCTC 13846 (EC-MDR), evolved line 6) was 8, the “Relative MIC” value ([1]; ALE, E. coli NCTC 13846 (EC-MDR), evolved line 7) was 8 and the “Relative MIC” value ([1]; ALE, E. coli NCTC 13846 (EC-MDR), evolved line 8) was 16. The “Relative MIC” value ([1]; ALE, E. coli NCTC 13846 (EC-MDR), evolved line 9) was 16, the “Relative MIC” value ([1]; ALE, E. coli NCTC 13846 (EC-MDR), evolved line 10) was 32 and the “Relative MIC (log10)” value ([1]; EC-MDR (Escherichia coli NCTC 13846), evolved line 2) was 1.204 log10. The “Relative MIC (log10)” value ([1]; EC-MDR (Escherichia coli NCTC 13846), evolved line 4) was 1.204 log10, the “Relative MIC (log10)” value ([1]; EC-MDR (Escherichia coli NCTC 13846), evolved line 8) was 1.204 log10 and the “Relative MIC (log10)” value ([1]; EC-MDR (Escherichia coli NCTC 13846), evolved line 9) was 1.204 log10. For the same compound, the “Relative MIC (log10)” value ([1]; EC-MDR (Escherichia coli NCTC 13846), evolved line 10) was 1.505 log10, the MIC of evolved line ([1]; EC-MDR (NCTC 13846), evolved line 1) was 32 µg/mL and the “Relative MIC” value ([1]; EC-MDR (NCTC 13846), evolved line 1, evolved vs ancestor) was 8. For the same compound, the MIC of evolved line ([1]; EC-MDR (NCTC 13846), evolved line 2) was 64 µg/mL, the “Relative MIC” value ([1]; EC-MDR (NCTC 13846), evolved line 2, evolved vs ancestor) was 16 and the “Relative MIC” value ([1]; EC-MDR (NCTC 13846), evolved line 3, evolved vs ancestor) was 16. The MIC of evolved line ([1]; EC-MDR (NCTC 13846), evolved line 4) was 64 µg/mL, the “Relative MIC” value ([1]; EC-MDR (NCTC 13846), evolved line 4, evolved vs ancestor) was 16 and the “Relative MIC” value ([1]; EC-MDR (NCTC 13846), evolved line 5, evolved vs ancestor) was 32. For the same compound, the “Relative MIC” value ([1]; EC-MDR (NCTC 13846), evolved line 6, evolved vs ancestor) was 8, the MIC of evolved line ([1]; EC-MDR (NCTC 13846), evolved line 7) was 32 µg/mL and the “Relative MIC” value ([1]; EC-MDR (NCTC 13846), evolved line 7, evolved vs ancestor) was 8. The “Relative MIC” value ([1]; EC-MDR (NCTC 13846), evolved line 8, evolved vs ancestor) was 16, the “Relative MIC” value ([1]; EC-MDR (NCTC 13846), evolved line 9, evolved vs ancestor) was 16 and the “Relative MIC” value ([1]; EC-MDR (NCTC 13846), evolved line 10, evolved vs ancestor) was 32. For the same compound, the MIC of evolved line ([1]; EC-MDR NCTC 13846, evolved line 3) was 64 µg/mL, the MIC of evolved line ([1]; EC-MDR NCTC 13846, evolved line 5) was 128 µg/mL and the MIC of evolved line ([1]; EC-MDR NCTC 13846, evolved line 6) was 32 µg/mL. The MIC of evolved line ([1]; EC-MDR NCTC 13846, evolved line 8) was 64 µg/mL, the MIC of evolved line ([1]; EC-MDR NCTC 13846, evolved line 9) was 64 µg/mL and the MIC of evolved line ([1]; EC-MDR NCTC 13846, evolved line 10) was 128 µg/mL. The MIC of evolved line ([1]; EC-SEN (ATCC 25922), evolved line 1) was 128 µg/mL, the “Relative MIC” value ([1]; EC-SEN (ATCC 25922), evolved line 1, evolved vs ancestor) was 512 and the MIC of evolved line ([1]; EC-SEN (ATCC 25922), evolved line 2) was 64 µg/mL. The “Relative MIC” value ([1]; EC-SEN (ATCC 25922), evolved line 2, evolved vs ancestor) was 256, the MIC of evolved line ([1]; EC-SEN (ATCC 25922), evolved line 3) was 128 µg/mL and the “Relative MIC” value ([1]; EC-SEN (ATCC 25922), evolved line 3, evolved vs ancestor) was 512. The MIC of evolved line ([1]; EC-SEN (ATCC 25922), evolved line 4) was 64 µg/mL, the “Relative MIC” value ([1]; EC-SEN (ATCC 25922), evolved line 4, evolved vs ancestor) was 256 and the MIC of evolved line ([1]; EC-SEN (ATCC 25922), evolved line 5) was 32 µg/mL. For the same compound, the “Relative MIC” value ([1]; EC-SEN (ATCC 25922), evolved line 5, evolved vs ancestor) was 128, the MIC of evolved line ([1]; EC-SEN (ATCC 25922), evolved line 6) was 128 µg/mL and the “Relative MIC” value ([1]; EC-SEN (ATCC 25922), evolved line 6, evolved vs ancestor) was 512. The MIC of evolved line ([1]; EC-SEN (ATCC 25922), evolved line 7) was 64 µg/mL, the “Relative MIC” value ([1]; EC-SEN (ATCC 25922), evolved line 7, evolved vs ancestor) was 256 and the MIC of evolved line ([1]; EC-SEN (ATCC 25922), evolved line 8) was 32 µg/mL. The “Relative MIC” value ([1]; EC-SEN (ATCC 25922), evolved line 8, evolved vs ancestor) was 128, the MIC of evolved line ([1]; EC-SEN (ATCC 25922), evolved line 9) was 64 µg/mL and the “Relative MIC” value ([1]; EC-SEN (ATCC 25922), evolved line 9, evolved vs ancestor) was 256. For the same compound, the MIC of evolved line ([1]; EC-SEN (ATCC 25922), evolved line 10) was 4 µg/mL, the “Relative MIC” value ([1]; EC-SEN (ATCC 25922), evolved line 10, evolved vs ancestor) was 16 and the “Relative MIC (log10)” value ([1]; EC-SEN (Escherichia coli ATCC 25922), evolved line 3) was 2.709 log10. The “Relative MIC (log10)” value ([1]; EC-SEN (Escherichia coli ATCC 25922), evolved line 4) was 2.408 log10, the “Relative MIC (log10)” value ([1]; EC-SEN (Escherichia coli ATCC 25922), evolved line 6) was 2.709 log10 and the “Relative MIC (log10)” value ([1]; EC-SEN (Escherichia coli ATCC 25922), evolved line 9) was 2.408 log10. The “Relative MIC (log10)” value ([1]; EC-SEN, Escherichia coli ATCC 25922, evolved line 1) was 2.709 log10, the “Relative MIC” value ([1]; Escherichia coli ATCC 25922 (EC-SEN), evolved line 1) was 512 and the “Relative MIC” value ([1]; Escherichia coli ATCC 25922 (EC-SEN), evolved line 2) was 256. For the same compound, the “Relative MIC” value ([1]; Escherichia coli ATCC 25922 (EC-SEN), evolved line 3) was 512, the “Relative MIC” value ([1]; Escherichia coli ATCC 25922 (EC-SEN), evolved line 4) was 256 and the “Relative MIC” value ([1]; Escherichia coli ATCC 25922 (EC-SEN), evolved line 5) was 128. The “Relative MIC” value ([1]; Escherichia coli ATCC 25922 (EC-SEN), evolved line 6) was 512, the “Relative MIC” value ([1]; Escherichia coli ATCC 25922 (EC-SEN), evolved line 7) was 256 and the “Relative MIC” value ([1]; Escherichia coli ATCC 25922 (EC-SEN), evolved line 8) was 128. The “Relative MIC” value ([1]; Escherichia coli ATCC 25922 (EC-SEN), evolved line 9) was 256, the “Relative MIC” value ([1]; Escherichia coli ATCC 25922 (EC-SEN), evolved line 10) was 16 and the “Relative MIC” value ([1]; Escherichia coli NCTC 13846 (EC-MDR), evolved line 1) was 8. For the same compound, the “Relative MIC” value ([1]; Escherichia coli NCTC 13846 (EC-MDR), evolved line 2) was 16, the “Relative MIC” value ([1]; Escherichia coli NCTC 13846 (EC-MDR), evolved line 3) was 16 and the “Relative MIC” value ([1]; Escherichia coli NCTC 13846 (EC-MDR), evolved line 4) was 16. The “Relative MIC” value ([1]; Escherichia coli NCTC 13846 (EC-MDR), evolved line 5) was 32, the “Relative MIC” value ([1]; Escherichia coli NCTC 13846 (EC-MDR), evolved line 6) was 8 and the “Relative MIC” value ([1]; Escherichia coli NCTC 13846 (EC-MDR), evolved line 7) was 8. The “Relative MIC” value ([1]; Escherichia coli NCTC 13846 (EC-MDR), evolved line 8) was 16, the “Relative MIC” value ([1]; Escherichia coli NCTC 13846 (EC-MDR), evolved line 9) was 16 and the “Relative MIC” value ([1]; Escherichia coli NCTC 13846 (EC-MDR), evolved line 10) was 32. For the same compound, the “Relative MIC (log2)” value ([2]; replicate 1) was 0, the “Relative MIC (log2)” value ([2]; replicate 2) was 0 and the “Relative MIC (log2)” value ([2]; replicate 3) was 0.
